Measured values: the supplement of paper PMC6045584
± gives the standard deviation of the averaged measurements.

Tests used:
VISMODEGIB = compound: CS(=O)(=O)c1ccc(C(=O)Nc2ccc(Cl)c(-c3ccccn3)c2)c(Cl)c1 [VISMODEGIB]; assay: surviving fraction relative to DMSO-only wells; higher = less growth inhibition; conditions: exposure time: 5 days
How it was run: (§1)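 Luminescence normalised to the median of DMSO-only wells defines surviving fraction, with viability read by CellTiter-Glo. Signal was recorded after 10 minutes at room temperature, once log-phase tumour cell lines seeded at 250–500 cells per well in 384-well plates had spent 24 hours settling and then five days under continuous exposure to inhibitors at 0.5, 1, 5, 10, 50, 100, 500 and 1000 nM.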

RESVERATROL = compound: Oc1ccc(/C=C/c2cc(O)cc(O)c2)cc1 [RESVERATROL]; assay: as above; conditions: exposure time: 5 days
How it was run: as §1

Test System	surviving fraction (VISMODEGIB; 0.5 nM)	surviving fraction (VISMODEGIB; 1 nM)	surviving fraction (VISMODEGIB; 5 nM)	surviving fraction (VISMODEGIB; 10 nM)	surviving fraction (VISMODEGIB; 50 nM)	surviving fraction (VISMODEGIB; 100 nM)	surviving fraction (VISMODEGIB; 500 nM)	surviving fraction (VISMODEGIB; 1000 nM)	surviving fraction (RESVERATROL; 0.5 nM)	surviving fraction (RESVERATROL; 1 nM)	surviving fraction (RESVERATROL; 5 nM)	surviving fraction (RESVERATROL; 10 nM)	surviving fraction (RESVERATROL; 50 nM)	surviving fraction (RESVERATROL; 100 nM)	surviving fraction (RESVERATROL; 500 nM)	surviving fraction (RESVERATROL; 1000 nM)
SYO1 SYNOVIAL	0.953 ± 0.052	0.978 ± 0.049	0.992 ± 0.014	0.994 ± 0.054	0.879 ± 0.042	0.882 ± 0.041	0.884 ± 0.045	0.898 ± 0.048	0.975 ± 0.062	0.996 ± 0.027	0.996 ± 0.04	0.991 ± 0.044	0.974 ± 0.045	1.01 ± 0.038	0.987 ± 0.039	1.01 ± 0.051
T47D BREAST	0.993 ± 0.034	0.965 ± 0.049	1.01 ± 0.025	0.988 ± 0.012	0.99 ± 0.035	1.07 ± 0.015	0.983 ± 0.013	0.989 ± 0.025	1.06 ± 0.011	1.1 ± 0.036	1.11 ± 0.049	1.11 ± 0.017	0.997 ± 0.15	1.08 ± 0.08	1.02 ± 0.15	1.08 ± 0.16
U2OS BONE	1.04 ± 0.019	1.07 ± 0.042	1.09 ± 0.012	1.05 ± 0.013	1.02 ± 0.065	1.04 ± 0.046	1.05 ± 0.028	1.07 ± 0.024	1.06 ± 0.018	1.04 ± 0.022	1.04 ± 0.029	1.06 ± 0.054	1.06 ± 0.031	1.08 ± 0.028	1.05 ± 0.033	1.05 ± 0.027
VCAP PROSTATE	1.04 ± 0.046	1 ± 0.11	1.1 ± 0.18	1.13 ± 0.22	0.905 ± 0.033	1.08 ± 0.12	0.914 ± 0.066	0.981 ± 0.1	1.02 ± 0.18	0.812 ± 0.12	0.994 ± 0.12	1.02 ± 0.13	0.901 ± 0.061	0.978 ± 0.017	0.88 ± 0.07	0.931 ± 0.18
VP229 BREAST	1.27 ± 0.025	1.1 ± 0.065	1.15 ± 0.13	1.14 ± 0.082	0.972 ± 0.14	1.01 ± 0.017	1.15 ± 0.16	1.11 ± 0.014	1.19 ± 0.11	1.32 ± 0.14	1.19 ± 0.12	1.2 ± 0.17	1.09 ± 0.18	1.22 ± 0.095	1.23 ± 0.16	1.12 ± 0.19
YAMATO SYNOVIAL	1.24 ± 0.083	1.26 ± 0.099	1.34 ± 0.087	1.37 ± 0.067	0.917 ± 0.031	0.967 ± 0.15	0.805 ± 0.066	0.82 ± 0.12	1.21 ± 0.063	1.28 ± 0.1	1.34 ± 0.064	1.27 ± 0.18	1.32 ± 0.18	1.31 ± 0.099	1.25 ± 0.073	1.15 ± 0.15
ZR751 BREAST	0.853 ± 0.06	0.937 ± 0.16	0.799 ± 0.15	0.971 ± 0.12	0.756 ± 0.036	0.857 ± 0.037	0.835 ± 0.15	0.945 ± 0.06	0.956 ± 0.028	1.08 ± 0.069	0.95 ± 0.07	1.01 ± 0.037	1.01 ± 0.1	1.03 ± 0.1	0.957 ± 0.045	1.12 ± 0.088
